Results published in US8163269B2, “Bioactive stents for type II diabetics and methods for use thereof” (priority 2004, dated 2012).
No end group written: not given here.

System: ECs
Experiment: adhesion assay with peptides conjugated to PEA polymer
Format: cell-based, Human
Design: key to adhesion assay microscopic observation, cell shape: r = round; s = spindly; sp = spread
Experimental: The attachment factor, in a phosphate buffered saline (PBS) solution, was coated onto a non-tissue culture dish and allowed to adsorb overnight at 4° C. The following day the plate was blocked for 1 hour at room temperature with heat-inactivated, 0.2% bovine serum albumin (BSA) solution (in PBS) to prevent non-specific attachment. A timed adhesion assay was then conducted. The assay includes negative control wells coated only with PBS and positive control wells coated with fibronectin. So far, none of the adhesion factors tested has surpassed the cell adhesion and cell spreading induced by fibronectin. In addition to adhesion, spreading is also an important consideration in determining the suitability of a substrate. If the cells are not able to spread, it is unlikely that the cells will proliferate on that surface.
The first conjugation was done to the PEA-H version of the polymer (acid) since this polymer has suitable sites for conjugation. The peptides can be covalently bound to this polymer via a wide variety of suitable functional groups. For example, when the biodegradable polymer is a poly(ester amide) (PEA) containing Lysine residues, the carboxyl groups from the Lysine residues can be used to react with a complementary moiety on the peptide, such as an hydroxy, amino, thio moiety, and the like (5). Specifically, the PEA-H polymer with free COOH reacts with water soluble carbodiimide (WSC) and N-Hydroxysuccinimide (HOSu) to produce an activated ester, which, in turn, reacts with an amino functional group of a peptide to provide an amide linkage (FIG. 6B). By using a fluorescent dansyl-lysine (FIG. 5), the optimal reaction conditions for activation and conjugation were determined (FIG. 6A).
The conjugation of CS5 and GREDVDY peptides to the polymer was then performed using the same protocol (FIG. 6B).
A similar protocol (see flow chart FIG. 6B) was used to conjugate combinations of the acid polymer with PEA polymer of structure (I) containing acetylated ends and benzylated COOH groups, (PEA-AcBz) and PEA-TEMPO (50/50 and 10/90), respectively. By combining the conjugatable acid form with the other polymers, a determination could be made whether the presence of the recruitment peptide on the polymer conferred an advantage in EC recruitment.
Microscopic observations taken at 2 h, 4 h and 6 h from duplicate wells from two representative adhesion assays are summarized in Table 2 below.

[1] = 2 h, 10/90 H/Bz (10% PEA-H and 90% PEA-Ac-Bz), Assay 1
[2] = 2 h, 10/90 H/Bz (10% PEA-H and 90% PEA-Ac-Bz), Assay 2
[3] = 2 h, 10/90 H/T (10% PEA-H and 90% PEA-Ac-TEMPO), Assay 1
[4] = 2 h, 10/90 H/T (10% PEA-H and 90% PEA-Ac-TEMPO), Assay 2
[5] = 2 h, 50/50 H/Bz (50% PEA-H and 50% PEA-Ac-Bz), Assay 1
[6] = 2 h, 50/50 H/Bz (50% PEA-H and 50% PEA-Ac-Bz), Assay 2
[7] = 2 h, 50/50 H/T (50% PEA-H and 50% PEA-Ac-TEMPO), Assay 1
[8] = 2 h, 50/50 H/T (50% PEA-H and 50% PEA-Ac-TEMPO), Assay 2
[9] = 4 h, 10/90 H/Bz (10% PEA-H and 90% PEA-Ac-Bz), Assay 1
[10] = 4 h, 10/90 H/Bz (10% PEA-H and 90% PEA-Ac-Bz), Assay 2
[11] = 4 h, 10/90 H/T (10% PEA-H and 90% PEA-Ac-TEMPO), Assay 1
[12] = 4 h, 10/90 H/T (10% PEA-H and 90% PEA-Ac-TEMPO), Assay 2
[13] = 4 h, 50/50 H/Bz (50% PEA-H and 50% PEA-Ac-Bz), Assay 1
[14] = 4 h, 50/50 H/Bz (50% PEA-H and 50% PEA-Ac-Bz), Assay 2
[15] = 4 h, 50/50 H/T (50% PEA-H and 50% PEA-Ac-TEMPO), Assay 1
[16] = 4 h, 50/50 H/T (50% PEA-H and 50% PEA-Ac-TEMPO), Assay 2
[17] = 6 h, 10/90 H/Bz (10% PEA-H and 90% PEA-Ac-Bz), Assay 1
[18] = 6 h, 10/90 H/Bz (10% PEA-H and 90% PEA-Ac-Bz), Assay 2
[19] = 6 h, 10/90 H/T (10% PEA-H and 90% PEA-Ac-TEMPO), Assay 1
[20] = 6 h, 10/90 H/T (10% PEA-H and 90% PEA-Ac-TEMPO), Assay 2
[21] = 6 h, 50/50 H/Bz (50% PEA-H and 50% PEA-Ac-Bz), Assay 1
[22] = 6 h, 50/50 H/Bz (50% PEA-H and 50% PEA-Ac-Bz), Assay 2
[23] = 6 h, 50/50 H/T (50% PEA-H and 50% PEA-Ac-TEMPO), Assay 1
[24] = 6 h, 50/50 H/T (50% PEA-H and 50% PEA-Ac-TEMPO), Assay 2

Conj CS5: CS5 peptide (SEQ ID NO:1) conjugated to PEA-H mixed with PEA-Ac-Bz or PEA-Ac-TEMPO polymer coating (GEEIQIGHIPREDVDYHLYP; also: conjugated to PEA polymer coating)
40%: adhesion assay microscopic observation, % [9]
r/s/sp: adhesion assay microscopic observation, cell shape [4] | adhesion assay microscopic observation, cell shape [11] | adhesion assay microscopic observation, cell shape [14] | adhesion assay microscopic observation, cell shape [16] | adhesion assay microscopic observation, cell shape [18] | adhesion assay microscopic observation, cell shape [19] | adhesion assay microscopic observation, cell shape [20]
r/sp: adhesion assay microscopic observation, cell shape [9]
30%: adhesion assay microscopic observation, % [1] | adhesion assay microscopic observation, % [2] | adhesion assay microscopic observation, % [3] | adhesion assay microscopic observation, % [4] | adhesion assay microscopic observation, % [8] | adhesion assay microscopic observation, % [10] | adhesion assay microscopic observation, % [11] | adhesion assay microscopic observation, % [13] | adhesion assay microscopic observation, % [14] | adhesion assay microscopic observation, % [15] | adhesion assay microscopic observation, % [18] | adhesion assay microscopic observation, % [20] | adhesion assay microscopic observation, % [22] | adhesion assay microscopic observation, % [24]
20-30%: adhesion assay microscopic observation, % [6] | adhesion assay microscopic observation, % [7]
r: adhesion assay microscopic observation, cell shape [5] | adhesion assay microscopic observation, cell shape [6] | adhesion assay microscopic observation, cell shape [13] | adhesion assay microscopic observation, cell shape [15] | adhesion assay microscopic observation, cell shape [21] | adhesion assay microscopic observation, cell shape [23]
r/s: adhesion assay microscopic observation, cell shape [1] | adhesion assay microscopic observation, cell shape [2] | adhesion assay microscopic observation, cell shape [3] | adhesion assay microscopic observation, cell shape [7] | adhesion assay microscopic observation, cell shape [8] | adhesion assay microscopic observation, cell shape [22] | adhesion assay microscopic observation, cell shape [24]
s/sp: adhesion assay microscopic observation, cell shape [10] | adhesion assay microscopic observation, cell shape [12] | adhesion assay microscopic observation, cell shape [17]
30-40%: adhesion assay microscopic observation, % [12] | adhesion assay microscopic observation, % [16] | adhesion assay microscopic observation, % [17] | adhesion assay microscopic observation, % [19]
20%: adhesion assay microscopic observation, % [5] | adhesion assay microscopic observation, % [21] | adhesion assay microscopic observation, % [23]

Conj REDV: GREDVDY peptide (SEQ ID NO:11) conjugated to PEA-H mixed with PEA-Ac-Bz or PEA-Ac-TEMPO polymer coating (also: conjugated to PEA polymer coating)
r/s: adhesion assay microscopic observation, cell shape [1] | adhesion assay microscopic observation, cell shape [3] | adhesion assay microscopic observation, cell shape [21]
30%: adhesion assay microscopic observation, % [1] | adhesion assay microscopic observation, % [2] | adhesion assay microscopic observation, % [3] | adhesion assay microscopic observation, % [4] | adhesion assay microscopic observation, % [8] | adhesion assay microscopic observation, % [13] | adhesion assay microscopic observation, % [15] | adhesion assay microscopic observation, % [16] | adhesion assay microscopic observation, % [17] | adhesion assay microscopic observation, % [21]
20-30%: adhesion assay microscopic observation, % [5] | adhesion assay microscopic observation, % [7]
r/s/sp: adhesion assay microscopic observation, cell shape [2] | adhesion assay microscopic observation, cell shape [4] | adhesion assay microscopic observation, cell shape [6] | adhesion assay microscopic observation, cell shape [8] | adhesion assay microscopic observation, cell shape [9] | adhesion assay microscopic observation, cell shape [16] | adhesion assay microscopic observation, cell shape [18] | adhesion assay microscopic observation, cell shape [19] | adhesion assay microscopic observation, cell shape [22]
20%: adhesion assay microscopic observation, % [23]
r: adhesion assay microscopic observation, cell shape [5] | adhesion assay microscopic observation, cell shape [7] | adhesion assay microscopic observation, cell shape [23]
40%: adhesion assay microscopic observation, % [12] | adhesion assay microscopic observation, % [20]
s/sp: adhesion assay microscopic observation, cell shape [10] | adhesion assay microscopic observation, cell shape [11] | adhesion assay microscopic observation, cell shape [12] | adhesion assay microscopic observation, cell shape [13] | adhesion assay microscopic observation, cell shape [14] | adhesion assay microscopic observation, cell shape [17] | adhesion assay microscopic observation, cell shape [20] | adhesion assay microscopic observation, cell shape [24]
30-40%: adhesion assay microscopic observation, % [6] | adhesion assay microscopic observation, % [9] | adhesion assay microscopic observation, % [10] | adhesion assay microscopic observation, % [11] | adhesion assay microscopic observation, % [14] | adhesion assay microscopic observation, % [18] | adhesion assay microscopic observation, % [19] | adhesion assay microscopic observation, % [22] | adhesion assay microscopic observation, % [24]
